Experimental data from US8791131B2, “Imidazo[1,5]naphthyridine compounds, their pharmaceutical use and compositions” (Pfizer Inc., priority 2008, dated 2014).
Where two headings read alike, the source gives them in different places.

Legend:
PI3-Kα = PI3-Kα (Mus musculus (Mouse), UniProt P42337); experiment: PI3-Kα biochemical assay (in vitro kinase assay, fluorescence polarization); conditions: Ki calculated from IC50, [ATP]=30 uM, Km=25 uM;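 note: Insect-cell-expressed mouse p110/p85 complex converting PI(4,5)P2, product PI(3,4,5)P3 detected by displacing TAMRA-tagged PI(3,4,5)P3 from Grip1 PH domain, lower polarization means more product, room temperature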
[1] = tested on: PI3-K (phosphorylation of AKT at serine 473) in BT20 cells; experiment: PI3-Kα cellular assay (phospho-AKT Ser473 ELISA in BT20 cells); conditions: Homo sapiens, BT-20, 1 h;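 note: lysates read by ELISA with TMB colour at 450 nm, cells given 0.5% DMSO vehicle serve as positive control and cell-free wells as negative control, duplicate wells per concentration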
mTOR = mTOR (Homo sapiens (Human), UniProt P42345)
[2] = read-out: S473 pAKT 0.5% FBS IC50 (μM)
[3] = read-out: S473 pAKT 10% FBS IC50 (μM)

PI3-Kα, sequence (P42337 whole entry, the tested form may be a part): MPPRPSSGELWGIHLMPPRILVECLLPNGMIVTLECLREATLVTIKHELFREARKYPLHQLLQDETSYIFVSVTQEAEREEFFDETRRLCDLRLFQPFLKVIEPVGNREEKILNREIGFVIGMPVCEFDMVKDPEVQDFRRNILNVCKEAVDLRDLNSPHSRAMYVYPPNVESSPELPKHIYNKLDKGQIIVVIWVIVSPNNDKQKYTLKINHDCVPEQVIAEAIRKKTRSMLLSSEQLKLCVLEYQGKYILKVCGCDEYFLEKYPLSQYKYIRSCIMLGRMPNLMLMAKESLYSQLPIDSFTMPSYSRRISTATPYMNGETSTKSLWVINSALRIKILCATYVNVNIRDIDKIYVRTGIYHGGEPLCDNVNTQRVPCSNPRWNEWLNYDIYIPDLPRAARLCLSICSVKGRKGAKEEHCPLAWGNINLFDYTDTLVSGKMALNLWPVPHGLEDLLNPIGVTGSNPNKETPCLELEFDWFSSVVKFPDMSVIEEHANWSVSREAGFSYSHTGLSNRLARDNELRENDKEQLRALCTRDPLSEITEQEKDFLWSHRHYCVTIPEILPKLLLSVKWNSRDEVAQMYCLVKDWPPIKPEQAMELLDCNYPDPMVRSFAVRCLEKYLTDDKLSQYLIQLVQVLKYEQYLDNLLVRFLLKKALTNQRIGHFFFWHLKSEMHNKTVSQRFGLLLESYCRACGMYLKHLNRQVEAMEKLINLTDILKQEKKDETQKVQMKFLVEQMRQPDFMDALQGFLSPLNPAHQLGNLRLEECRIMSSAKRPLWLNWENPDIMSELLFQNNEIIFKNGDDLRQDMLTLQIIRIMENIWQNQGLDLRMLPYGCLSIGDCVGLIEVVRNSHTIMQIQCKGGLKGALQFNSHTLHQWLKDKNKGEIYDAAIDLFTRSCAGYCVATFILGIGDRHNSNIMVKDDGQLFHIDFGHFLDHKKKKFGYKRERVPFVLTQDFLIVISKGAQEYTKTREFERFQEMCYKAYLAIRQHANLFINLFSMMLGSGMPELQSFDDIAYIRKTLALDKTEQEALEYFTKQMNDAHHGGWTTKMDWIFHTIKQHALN
PI3-Kα, sequence (P26450 whole entry partner, the tested form may be a part): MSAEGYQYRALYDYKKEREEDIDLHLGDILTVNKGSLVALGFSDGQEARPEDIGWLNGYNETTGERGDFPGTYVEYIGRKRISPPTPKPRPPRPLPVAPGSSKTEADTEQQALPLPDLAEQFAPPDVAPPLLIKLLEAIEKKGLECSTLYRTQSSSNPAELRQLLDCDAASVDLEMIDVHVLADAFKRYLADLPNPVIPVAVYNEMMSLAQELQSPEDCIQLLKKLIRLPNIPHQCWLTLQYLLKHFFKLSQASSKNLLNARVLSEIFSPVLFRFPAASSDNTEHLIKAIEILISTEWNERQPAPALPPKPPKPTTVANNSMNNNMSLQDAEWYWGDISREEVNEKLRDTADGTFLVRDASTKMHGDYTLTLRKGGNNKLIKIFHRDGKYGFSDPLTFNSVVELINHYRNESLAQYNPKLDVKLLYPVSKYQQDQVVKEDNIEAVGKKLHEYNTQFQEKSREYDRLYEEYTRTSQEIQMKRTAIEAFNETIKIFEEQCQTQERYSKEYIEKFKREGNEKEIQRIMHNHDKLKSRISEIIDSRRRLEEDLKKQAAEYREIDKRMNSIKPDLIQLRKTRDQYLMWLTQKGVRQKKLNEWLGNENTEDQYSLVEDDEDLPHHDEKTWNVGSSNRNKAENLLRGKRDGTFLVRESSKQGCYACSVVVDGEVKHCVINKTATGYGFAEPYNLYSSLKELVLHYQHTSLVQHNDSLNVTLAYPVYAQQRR
mTOR, sequence (P42345 2156-2469): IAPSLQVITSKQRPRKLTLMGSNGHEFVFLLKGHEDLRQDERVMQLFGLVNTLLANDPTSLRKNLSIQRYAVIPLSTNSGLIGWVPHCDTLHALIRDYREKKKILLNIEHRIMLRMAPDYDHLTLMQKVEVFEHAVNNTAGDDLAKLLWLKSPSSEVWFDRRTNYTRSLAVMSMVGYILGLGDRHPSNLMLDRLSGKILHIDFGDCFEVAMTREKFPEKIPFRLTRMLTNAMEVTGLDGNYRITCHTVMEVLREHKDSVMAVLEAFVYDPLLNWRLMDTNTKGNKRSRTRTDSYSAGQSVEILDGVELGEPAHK

Row | Compound | PI3Ka Ki (PI3-Kα) [µM] | IC50 [1, 2] [µM] | Ki (mTOR) [µM] | IC50 [1, 3] [µM]
1 | COc1ccc(-c2ccc3ncc4[nH]c(=O)n(-c5ccc(C(C)(C)C#N)cc5)c4c3n2)cn1 [Compound 103, 2-{4-[8-(6-methoxypyridin-3-yl)-2-oxo-2,3-dihydro-1H-imidazo[4,5-c]-1,5-naphthyridin-1-yl]phenyl}-2-methylpropanenitrile] | 0.00186 | 0.0115 | 0.00209 | 
2 | Cc1ccc(-c2ccc3ncc4c(c3n2)n(-c2ccc(C(C)(C)C#N)cc2)c(=O)n4C)cn1 [Compound 106, 2-methyl-2-{4-[3-methyl-8-(6-methylpyridin-3-yl)-2-oxo-2,3-dihydro-1H-imidazo[4,5-c]-1,5-naphthyridin-1-yl]phenyl}propanenitrile] | 0.0348 | 0.0244 | 0.0269 | 
3 | CN(C)c1ccc(-c2ccc3ncc4[nH]c(=O)n(-c5ccc(C(C)(C)C#N)cc5)c4c3n2)cn1 [Compound 107, 2-(4-(8-(6-(dimethylamino)pyridin-3-yl)-2-oxo-2,3-dihydroimidazo[4,5-c][1,5]naphthyridin-1-yl)phenyl)-2-methylpropanenitrile] | 0.00385 | 0.0676 | 0.00426 | 
4 | CN(C)c1ccc(-c2ccc3ncc4c(c3n2)n(-c2ccc(C(C)(C)C#N)cc2)c(=O)n4C)cn1 [Compound 108, 2-(4-(8-(6-(dimethylamino)pyridin-3-yl)-3-methyl-2-oxo-2,3-dihydroimidazo[4,5-c][1,5]naphthyridin-1-yl)phenyl)-2-methylpropanenitrile] | 0.00445 | 0.0309 | 0.00467 | 
5 | COc1ncc(-c2ccc3ncc4[nH]c(=O)n(-c5ccc(C(C)(C)C#N)cc5)c4c3n2)cc1F [Compound 109, 2-(4-(8-(5-fluoro-6-methoxypyridin-3-yl)-2-oxo-2,3-dihydroimidazo[4,5-c][1,5]naphthyridin-1-yl)phenyl)-2-methylpropanenitrile] | 0.00381 | 0.197 | 0.00903 | 
6 | COc1ncc(-c2ccc3ncc4c(c3n2)n(-c2ccc(C(C)(C)C#N)cc2)c(=O)n4C)cc1F [Compound 110, 2-(4-(8-(5-fluoro-6-methoxypyridin-3-yl)-3-methyl-2-oxo-2,3-dihydroimidazo[4,5-c][1,5]naphthyridin-1-yl)phenyl)-2-methylpropanenitrile] | 0.00235 |  | 0.0266 | 0.0907
7 | COc1ncc(-c2ccc3ncc4[nH]c(=O)n(-c5ccc(C(C)(C)C#N)cc5)c4c3n2)cn1 [Compound 111, 2-(4-(8-(2-methoxypyrimidin-5-yl)-2-oxo-2,3-dihydroimidazo[4,5-c][1,5]naphthyridin-1-yl)phenyl)-2-methylpropanenitrile] | 0.0114 | 0.0439 | 0.00154 | 
8 | Cn1cc(-c2ccc3ncc4[nH]c(=O)n(-c5ccc(C(C)(C)C#N)cc5)c4c3n2)cn1 [Compound 113, 2-Methyl-2-{4-[8-(1-methyl-1H-pyrazol-4-yl)-2-oxo-2,3-dihydro-1,3,5,9-tetraaza-cyclopenta[a]naphthalen-1-yl]-phenyl}-propionitrile] | 0.0592 | 0.0973 | 0.0155 | 
9 | Cn1cc(-c2ccc3ncc4c(c3n2)n(-c2ccc(C(C)(C)C#N)cc2)c(=O)n4C)cn1 [Compound 114, 2-Methyl-2-{4-[3-methyl-8-(1-methyl-1H-pyrazol-4-yl)-2-oxo-2,3-dihydro-1,3,5,9-tetraaza-cyclopenta[a]naphthalen-1-yl]-phenyl}-propionitrile] | 0.0723 | 0.116 | 0.0402 | 
10 | O=c1[nH]c2cnc3ccc(-c4cnc5ccccc5c4)nc3c2n1C1CCNCC1 [Compound 117, 1-piperidin-4-yl-8-quinolin-3-yl-1,3-dihydro-2H-imidazo[4,5-c][1,5]naphthyridin-2-one] | 0.00243 |  | 0.0124 | 0.353
11 | CCN1CCC(n2c(=O)n(C)c3cnc4ccc(-c5cnc6ccccc6c5)nc4c32)CC1 [Compound 119, 1-(1-ethylpiperidin-4-yl)-3-methyl-8-quinolin-3-yl-1,3-dihydro-2H-imidazo[4,5-c][1,5]naphthyridin-2-one] | 0.00319 | 0.0117 | 0.00811 | 
12 | CCC(=O)N1CCC(n2c(=O)n(C)c3cnc4ccc(-c5cnc6ccccc6c5)nc4c32)CC1 [Compound 121, 3-methyl-1-(1-propionylpiperidin-4-yl)-8-quinolin-3-yl-1,3-dihydro-2H-imidazo[4,5-c][1,5]naphthyridin-2-one] | 0.000539 | 0.00786 | 0.0079 | 
13 | COC(=O)N1CCC(n2c(=O)n(C)c3cnc4ccc(-c5cnc6ccccc6c5)nc4c32)CC1 [Compound 122, methyl4-(3-methyl-2-oxo-8-quinolin-3-yl-2,3-dihydro-1H-imidazo[4,5-c][1,5]napthyridin-1-yl)piperidine-1-carboxylate] | 0.000806 | 0.00807 | 0.0124 | 
14 | CNC(=O)N1CCC(n2c(=O)n(C)c3cnc4ccc(-c5cnc6ccccc6c5)nc4c32)CC1 [Compound 123, N-methyl-4-(3-methyl-2-oxo-8-quinolin-3-yl-2,3-dihydro-1H-imidazo[4,5-c][1,5]naphthyridin-1-yl)piperidine-1-carboxamide] | 0.00196 | 0.00734 | 0.00491 | 
15 | CC(C)C(=O)N1CCC(n2c(=O)n(C)c3cnc4ccc(-c5cnc6ccccc6c5)nc4c32)CC1 [Compound 125, 1-(1-isobutyrylpiperidin-4-yl)-3-methyl-8-quinolin-3-yl-1,3-dihydro-2H-imidazo[4,5-c][1,5]naphthyridin-2-one] | 0.00106 | 0.0294 | 0.00487 | 
16 | CN(C)CC(=O)N1CCC(n2c(=O)n(C)c3cnc4ccc(-c5cnc6ccccc6c5)nc4c32)CC1 [Compound 126, 1-[1-(N,N-dimethylglycyl)piperidin-4-yl]-3-methyl-8-quinolin-3-yl-1,3-dihydro-2H-imidazo[4,5-c][1,5]naphthyridin-2-one] | 0.00255 | 0.018 | 0.00342 | 
17 | CCOC(=O)N1CCC(n2c(=O)n(C)c3cnc4ccc(-c5cnc6ccccc6c5)nc4c32)CC1 [Compound 127, ethyl 4-(3-methyl-2-oxo-8-quinolin-3-yl-2,3-dihydro-1H-imidazo[4,5-c][1,5]naphthyridin-1-yl)piperidine-1-carboxylate] | 0.00138 | 0.0204 | 0.0043 | 
18 | CC(C)OC(=O)N1CCC(n2c(=O)n(C)c3cnc4ccc(-c5cnc6ccccc6c5)nc4c32)CC1 [Compound 128, isopropyl 4-(3-methyl-2-oxo-8-quinolin-3-yl-2,3-dihydro-1H-imidazo[4,5-c][1,5]naphthyridin-1-yl)piperidine-1-carboxylate] | 0.00289 | 0.0196 | 0.00972 | 
19 | CN1CCC(n2c(=O)n(C)c3cnc4ccc(-c5cnc6ccccc6c5)nc4c32)CC1 [Compound 129, 3-methyl-1-(1-methylpiperidin-4-yl)-8-quinolin-3-yl-1,3-dihydro-2H-imidazo[4,5-c][1,5]naphthyridin-2-one] | 0.00592 | 0.0117 | 0.0049 | 
20 | COc1ccc(-c2ccc3ncc4[nH]c(=O)n(Cc5ccccc5)c4c3n2)cn1 [Compound 130, 1-benzyl-8-(6-methoxypyridin-3-yl)-1,3-dihydro-2H-imidazo[4,5-c][1,5]naphthyridin-2-one] | 0.00239 | 0.0245 | 0.00844 | 
21 | COc1ccc(-c2ccc3ncc4[nH]c(=O)n([C@H]5CC[C@H](OCCO)CC5)c4c3n2)cn1 [Compound 131, 1-[trans-4-(2-hydroxyethoxy)cyclohexyl]-8-(6-methoxypyridin-3-yl)-1,3-dihydro-2H-imidazo[4,5-c][1,5]naphthyridin-2-one] | 0.000644 |  | 0.00214 | 0.0384
22 | COc1ccc(-c2ccc3ncc4[nH]c(=O)n([C@H]5CC[C@H](O)CC5)c4c3n2)cn1 [Compound 132, 1-(trans-4-hydroxycyclohexyl)-8-(6-methoxypyridin-3-yl)-1,3-dihydro-2H-imidazo[4,5-c][1,5]naphthyridin-2-one] | 0.00051 |  | 0.00139 | 0.0468
23 | COc1ccc(-c2ccc3ncc4c(c3n2)n(C2CCN(C(C)C)CC2)c(=O)n4C)cn1 [Compound 137, 1-(1-isopropylpiperidin-4-yl)-8-(6-methoxypyridin-3-yl)-3-methyl-1,3-dihydro-2H-imidazo[4,5-c][1,5]naphthyridin-2-one] | 0.00348 |  | 0.0178 | 0.0551
24 | COc1ccc(-c2ccc3ncc4c(c3n2)n(C2CCN(C(=O)CN(C)C)CC2)c(=O)n4C)cn1 [Compound 138, 1-[1-(N,N-dimethylglycyl)piperidin-4-yl]-8-(6-methoxypyridin-3-yl)-3-methyl-1,3-dihydro-2H-imidazo[4,5-c][1,5]naphthyridin-2-one] | 0.00223 |  | 0.0106 | 0.0144
25 | CNC(=O)N1CCC(n2c(=O)n(C)c3cnc4ccc(-c5cnn(C)c5)nc4c32)CC1 [Compound 217, N-methyl-4-[3-methyl-8-(1-methyl-1H-pyrazol-4-yl)-2-oxo-2,3-dihydro-1H-imidazo[4,5-c][1,5]naphthyridin-1-yl]piperidine-1-carboxamide] |  |  | 0.0187 | 0.0793
26 | COc1ccc(-c2ccc3ncc4c(c3n2)n(C2CCN(C(=O)CO)CC2)c(=O)n4C)cc1 [Compound 273, 1-(1-glycoloylpiperidin-4-yl)-8-(4-methoxyphenyl)-3-methyl-1,3-dihydro-2H-imidazo[4,5-c][1,5]naphthyridin-2-one] |  |  | 0.00342 | 0.0174
